{
  "source": "paper PMC12263422",
  "about": "“Cryo-EM structure of the human THIK-1 K2P K^+ channel reveals a lower Y gate regulated by lipids and anesthetics” (Nature Structural & Molecular Biology, 2025)",
  "target": "T1, THIK-1 C135A (Homo sapiens, UniProt Q9HB14, C135A)",
  "T1 construct": "expressed in transfected cells; host or cells: Xenopus oocytes (mRNA injection)",
  "T1 sequence (Q9HB14 1-408 C135A)": "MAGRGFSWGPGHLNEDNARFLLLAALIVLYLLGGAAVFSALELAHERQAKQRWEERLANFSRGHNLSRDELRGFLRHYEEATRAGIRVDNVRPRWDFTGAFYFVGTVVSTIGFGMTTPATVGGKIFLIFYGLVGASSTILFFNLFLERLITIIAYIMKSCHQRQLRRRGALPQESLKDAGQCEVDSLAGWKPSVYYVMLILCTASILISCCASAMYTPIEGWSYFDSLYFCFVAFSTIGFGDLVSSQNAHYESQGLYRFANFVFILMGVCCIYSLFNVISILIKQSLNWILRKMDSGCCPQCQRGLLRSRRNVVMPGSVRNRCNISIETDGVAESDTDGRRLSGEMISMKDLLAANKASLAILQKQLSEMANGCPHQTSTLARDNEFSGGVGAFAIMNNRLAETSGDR",
  "experiment": "Inside-out excised patch recordings, oocytes, THIK-1 C135A mutant",
  "type": "cell-based",
  "settings": "read-out: TPenA IC50",
  "description": "Human K2P13.1 THIK-1 (GenBank accession number: NM_022054) and human K2P12.1 THIK-2 (NM_022055.1) were used in this study. For functional expression studies, the respective K^+ channel subtype coding sequences were subcloned into the oocyte expression vector pSGEM or the dual-purpose expression vector pFAW[41] and verified by sequencing. All mutant channels were obtained by site-directed mutagenesis and verified by sequencing. To increase surface expression and macroscopic currents, measurements of THIK-2 channels used a mutated ER retention motif, (R11A R12A R14A R15A R16A; THIK-2*)[20]. Vector DNA was linearized with NheI or MluI, and mRNA was synthesized in vitro using the SP6 or T7 AmpliCap Max High Yield Message Maker Kit (Cellscript, USA) or HiScribe T7 ARCA mRNA Kit (New England Biolabs).\nTwo-electrode voltage–clamp (TEVC) studies were performed in Xenopus oocytes. All animal use conformed to the Guide for the Care and Use of Laboratory Animals (NIH Publication 85–23), and all experiments using Xenopus toads were approved by the local ethics panels. Oocytes were stored at 17 °C in ND96 recording solution composed of (in mM): 96 NaCl, 2 KCl, 1.8 CaCl2, 1 MgCl2, 5 HEPES (pH 7.5 adjusted with NaOH and HCl), supplemented with Na-pyruvate (275 mg L^–1), theophylline (90 mg L^–1) and gentamicin (50 mg L^–1). Oocytes were injected with 1 ng mRNA for WT or mutant channels, and were incubated for 24–48 h at 17 °C. Two-electrode voltage clamp recordings were then performed as previously described[42],[43]. […] Currents were recorded with an EPC10 amplifier (HEKA Electronics) and sampled at 10 kHz or higher, with filtering set to 3 kHz (–3 dB) or higher, as appropriate for sampling rate. For measurements of GPCR activation, whole-cell currents were recorded for THIK-1 in transiently transfected HEK-293 cells. […] Single-channel currents were recorded with an Axopatch 200B amplifier through a Digidata 1440A digitizer (Molecular Devices). Data were filtered at 2 kHz and recorded at a 200-kHz sampling rate with the program Clampex (Molecular Devices). […]",
  "note": "Where “and” joins values, the source holds several entries; their conditions need not be identical. Equal values may be shown once. Read-outs that look alike come from different tables or passages of the source.",
  "data": [
    {"smiles": "CCCCC[N+](CCCCC)(CCCCC)CCCCC", "note": "[TPenA, tetrapentylammonium]", "values": [
      {"measurement": "IC50", "setting": "C135A mutant", "result": 1060, "unit": "µM"},
      {"measurement": "IC50", "setting": "THIK-1 C135A, individual recordings", "result": "1250 µM and 1270 µM and 1530 µM and 1180 µM and 748 µM and 1440 µM and 621 µM and 466 µM"},
      {"measurement": "IC50", "setting": "THIK-1 C135A, mean", "result": 1060, "unit": "µM"}
    ]}
  ]
}
